Results on 3 molecules are retold here after patent US20250262172A1 (ANTECIP BIOVENTURES II LLC, priority 2022, published 2025).

For data set [1] the following is noted: powder; cited from earlier work.
Data set [2] can be described thus: Steady state pharmacokinetic data in 12 poor metabolizers in efficacy clinical trials (Example 2). Particulars: 105 mg bupropion hydrochloride and 45 mg dextromethorphan hydrobromide twice a day.
For data set [3] the following is noted: 7 days of twice-daily 30 mg dextromethorphan and 30 mg quinidine; cited from earlier work.
Data set [4] in a line: Pharmacokinetics in 3 CYP2D6 poor metabolizers given bupropion hydrochloride 105 mg and dextromethorphan hydrobromide 45 mg twice a day (Example 1). Particulars: 3 poor metabolizers; 105 mg bupropion hydrochloride and 45 mg dextromethorphan hydrobromide twice a day.
Data set [5] in a line: Effect of CYP2D6 poor metabolizer status on pharmacokinetics of the 45 mg dextromethorphan hydrobromide / 105 mg bupropion hydrochloride tablet (Example 3, FIG. 1). Particulars: CYP2D6 poor metabolizers vs extensive or ultra-extensive metabolizers; after 8 days of twice daily dosing of the tablet.
The conditions of data set [6]: CYP2D6 inhibited by quinidine; vs patients who were not CYP2D6 poor metabolizers; cited from earlier work.
Data set [7] can be described thus: Clinical trials of the bupropion and dextromethorphan combination, poor metabolizers vs other patients.
Data set [8] is described as follows: Concomitant use of the subject combination with strong CYP2D6 inhibitors. The format is in vivo, human. Particulars: subject combination with one or more strong CYP2D6 inhibitors. The text has this:
In some embodiments, the subject composition may be co-administered with one or more strong Inhibitors of CYP2D6. […] It is, thus, recommended to monitor patients for adverse effects or adverse reactions potentially attributable to dextromethorphan, such as somnolence and dizziness.

As for `CC(NC(C)(C)C)C(=O)c1cccc(Cl)c1.Cl` (racemic) [Bupropion hydrochloride, (±)-1-(3-chlorophenyl)-2-[(1,1-dimethylethyl)amino]-1-propanone hydrochloride], in data set [1], the solubility in water entry is on record as “highly soluble”.

Regarding `Br.COc1ccc2c(c1)[C@]13CCCC[C@@H]1[C@H](C2)N(C)CC3` [Dextromethorphan hydrobromide, morphinan, 3-methoxy-17-methyl-, (9α, 13α, 14α), hydrobromide monohydrate], in data set [1], the solubility in water result is reported as “sparingly soluble”.

Consider `COc1ccc2c(c1)[C@]13CCCC[C@@H]1[C@H](C2)N(C)CC3` [dextromethorphan], for which the “plasma concentrations of dextromethorphan vs exposures for non-poor metabolizer” value in data set [2] is reported as “generally higher”. Also, in data set [3], the “increase in AUC0-12 of poor metabolizers compared to extensive metabolizers” value is on record as around 1.46 fold and the “increase in Cmax of poor metabolizers compared to extensive metabolizers” value is on record as “about 1.43 fold”. Moreover, in data set [4], the “increase in dextromethorphan AUC0-12 compared to extensive metabolizers” value is around 3.4 fold and the “increase in dextromethorphan Cmax compared to extensive metabolizers” value is recorded as around 3 fold. Further, in data set [5], the “increase in dextromethorphan AUC0-12 (GMR)” value is on record as 3.40 fold and the “increase in dextromethorphan Cmax (GMR)” value is 3.00 fold. In addition, in data set [6], the “AUC0-12 of dextromethorphan higher for CYP2D6 poor metabolizers” value is “about 46%” and the “Cmax of dextromethorphan higher for poor metabolizers” value was “about 40%”. Further, in data set [7], the “Cmax and AUC of dextromethorphan in poor metabolizers vs patients who are not poor metabolizers” value was “significantly higher”. The “plasma concentrations of dextromethorphan” value in data set [8] is “increases”.
